Results from US9451763B2, “Disinfectant formulation” (Laboratoire M2, priority 2008, dated 2016).

Test system: Staphylococcus aureus (ATCC 6538)
Experiment: Minimum concentration for total antimicrobial activity, AOAC method 955.15 (Phenol Coefficient Method) with minor modifications
Format: cell-based

Compound | antimicrobial activity (in words) | Minimal Concentration (minimum concentration for total antimicrobial activity, incorporated into composition F, contact time 10 minutes, turbidity after 72 hours at 37° C.)
Cc1ccc(C(C)C)c(O)c1 [Thymol] | excellent antimicrobial activity | –
Cc1ccc(C(C)C)cc1O [Carvacrol] | excellent antimicrobial activity | 0.07 v/v %
